Legend:
[1] = tested on: primary human mast cells (human skin); assay: Histamine release assay, Substance P induced, primary human mast cells; assay type: cell-based; conditions: dose-dependent; not dependent on pre-incubation time
Method: Tissue mast cells were isolated from human skin obtained during cosmetic surgery. Use of human skin was conducted according to the Declaration of Helsinki Principles and was approved by the Institutional Review Board of the Charité—Universitätsmedizin Berlin. For isolation of mast cells, the epidermis was enzymatically detached by an overnight incubation at 4° C. with dispase at a concentration of 1 mg/ml. The remaining dermis was dispersed by incubation with a mix of collagenase I and hyaluronidase for 1 h at 37° C. Dispersion was repeated three times, and the collected cells were washed. […] The final mast cell purity was >90% as measured by Toluidin blue staining. The viability of mast cells was >95% as assessed by Trypan blue staining (Grützkau et al 2000, Artuc et al 2002). The quantification of histamine levels was achieved using an automated histamine-analyser system (Firm Borgwelt Technik). The wavelength of the excitation was 355-360 nm and the emission wavelength of fluorescence measurement was 450-460 nm. The intensity of fluorescence was directly proportional to the concentration of histamine in the samples. The amount of released histamine was calculated according to the following formula: net histamine release=(release−blank)×(100/complete). […]

[2] = tested on: human basophils; assay: Histamine release assay, anti-IgE induced, human basophils; assay type: cell-based; conditions: 10 minutes pre-incubation, read-out: maximal inhibitory effect on anti-IgE induced histamine release
Method: (§1) Human basophils were isolated from whole blood using ficoll paque (D=1.077). Briefly, heparinized whole blood was diluted 1:3 with PBS (w/o Ca and Mg), layered on the ficoll paque solution, and centrifuged for 30 min at 400×g. Low-density particles such as lymphocytes, monocytes, basophils, and platelets were recovered from the interface between the plasma and ficoll solution. The cell suspension from the interface was centrifuged twice at 200×g for 10 min for removal of thrombocytes from the basophil fraction. The number of basophils in the cell suspension was determined by Toluidin blue staining. The yield of basophils was approximately 2%. These pre-purified basophils were used for the histamine release assay. For the cytokine release assays, basophils were further purified using the “Basophil Isolation Kit” for depletion of non-basophils from the interface cell suspension. […] The quantification of histamine levels was achieved using an automated histamine-analyser system (Firm Borgwelt Technik). The wavelength of the excitation was 355-360 nm and the emission wavelength of fluorescence measurement was 450-460 nm. The intensity of fluorescence was directly proportional to the concentration of histamine in the samples. The amount of released histamine was calculated according to the following formula: net histamine release=(release−blank)×(100/complete). […]

[3] = tested on: membrane integrity (lactate dehydrogenase release)
[4] = tested on: human basophils; assay: Histamine release assay, C5a induced, human basophils; assay type: cell-based
Method: as §1

## CCCCCCCCCCCCCCCCOP(=O)([O-])OCC[N+](C)(C)C [Compound 3, 1-hexadecylphosphoryl-choline]
[1]
  inhibition of Substance P induced histamine release: 45%
[2]
  inhibition at 25 µM: 10%
[3]
  CD50: 69.5 µM
[4]
  inhibition at 25 µM: 75%
